{"source": "PubChem BioAssay AID2060355", "about": "(Molecular Pharmacology Branch, DTP, NCI, 2025);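 also: spheroids exposed to compounds for seven days before readout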;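 as to viability, T/C: 100% = DMSO vehicle control wells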", "test_system": "485368-065-R4-J2-PDC spheroids with HUVEC/MSC, viability", "assay": "Anticancer human tumor 485368-065-R4-J2-PDC patient-derived pancreatic carcinoma cell line growth inhibition [TAK]", "settings": "for IC50: curve of first compound; for viability, T/C: stronger effect = lower value", "description": "Combinatorial screen of targeted agents with TAK-243 and ipatasertib in multi-cell type tumor spheroids\nA high-throughput screen of multi-cell type tumor spheroids was designed to identify active combinations of targeted small molecules and TAK-243 or ipatasertib. Complex spheroids include a stromal component modeled by human endothelial cells (HUVEC) and fibroblasts modeled by human mesenchymal stem cells (MSCs). The concentration ranges selected for each drug and investigational agent were based upon clinically achievable concentrations if the clinical Cmax of the agent was known.\nCompounds. The drugs and investigational agents: TAK-243 (785004), ipatasertib (767898), everolimus (733504), selumetinib (741078), bortezomib (756655), trametinib (758246), ixazomib (758254), vemurafenib (761431), dabrafenib (764134), sapanisertib (764658), alpelisib (765974), and copanlisib (816437), were obtained from the National Cancer Institute (NCI) Developmental Therapeutics Program Chemical Repository. The FDA-approved anticancer drug set is available from the NCI Developmental Therapeutics Program. […] The stock solutions were prepared in dimethyl sulfoxide (DMSO, Sigma-Aldrich, St. Louis, MO, cat. D2650) at 800-fold the tested concentration and stored at -70 degrees C prior to their use. All drugs and investigational agents were tested over a range starting from a high concentration at or near the clinical Cmax and decreasing in half-log increments. If the clinical Cmax for an agent had not been determined, the highest concentration tested was 10 microM.\nNCI60 Cell Culture. NCI60 cell lines were obtained from the NCI Developmental Therapeutics Program Tumor Repository. For each lot of cells, the Repository performed Applied Biosystems AmpFLSTR Identifiler testing with PCR amplification to confirm consistency with the published Identifier STR profile for each cell line. Cells were kept in continuous culture for no more than 20 passages. The optimal seeding densities for each of the cell lines at each time point assessed were determined prior to performing the concentration response studies. Briefly, the NCI60 human tumor lines were grown as monolayers in RPMI 1640 medium supplemented with 10% FBS and 2 mmol/L L-glutamine.\nAn additional 2 lines were from the NCI60 cell line panel including melanomas, MALME-3M and SK-MEL-2. Pooled donor human umbilical vein endothelial cells (HUVEC, Lonza, cat. CC-2519) and human mesenchymal stem cells (hMSC, Lonza, cat. PT-2501) were purchased from Lonza (Walkersville, MD).\nPDMR cell lines were grown in complete medium (DC medium): Dulbecco's modified Eagle's medium (DMEM)/F12 supplemented with 5% fetal bovine serum (FBS), 2 mM L-glutamine, 100 U/mL penicillin and 100 µg/ml streptomycin, 0.4 µg/ml hydrocortisone, 10 ng/ml epidermal growth factor (EGF) recombinant human protein, 24 µg/mL adenine, and 0.1 mg/mL primocin. During culture from frozen stock vials, PDMR cells were cultured in the same medium containing 10 µM Y-27632 (see Table 3). The PDCs were cultured in complete DMEM/F12 media without 10 microM Y-27632 dihydrochloride for at least two passages prior to the screen. The pooled donor HUVEC and hMSC were cultured in endothelial cell growth medium 2 (PromoCell, Heidelberg, Germany, cat. C-22011) and mesenchymal stem cell growth medium 2 (PromoCell, cat. C-28009), respectively. For all experiments, HUVEC and hMSC were used at passages </=5.\nFor the pre-screen, cell seeding densities were determined from a titration spanning the range from 5,000 to 313 cells per well. The mct-spheroids including 60% malignant cells, 25% HUVEC and 15% MSC dispensed as a mixture into U-bottom Ultra-Low Attachment 384-well plates (Corning, NY)\nHigh-throughput Drug Combination Screening.\nPrior to their inoculation into 384-well plates, malignant cells, HUVEC, and hMSC were removed from T flasks using TrypLE express (Thermo Fisher Scientific, cat. 12605036) and harvested by centrifugation for 5 min at 233 x g. […]"}
{"smiles": "CC(=O)Nc1cccc(-n2c(=O)n(C3CC3)c(=O)c3c(Nc4ccc(I)cc4F)n(C)c(=O)c(C)c32)c1", "note": "+ CC(C)NCC(C(=O)N1CCN(c2ncnc3c2C(C)CC3O)CC1)c1ccc(Cl)cc1", "values": [{"measurement": "IC50", "setting": "second compound 0.3 µM", "value": 3.49, "unit": "nM"}, {"measurement": "IC50", "setting": "second compound 0.949 µM", "value": 1.61, "unit": "nM"}, {"measurement": "IC50", "setting": "second compound 3 µM", "value": 1.23, "unit": "nM"}, {"measurement": "IC50", "setting": "second compound 9.49 µM", "value": 0.596, "unit": "nM"}, {"measurement": "IC50", "setting": "second compound 30 µM", "value": 0.316, "unit": "nM"}, {"measurement": "viability, T/C", "setting": "second compound 0.3 µM, first compound 94.9 pM", "value": 89.9, "unit": "%"}, {"measurement": "viability, T/C", "setting": "second compound 0.3 µM, first compound 0.0003 µM", "value": 76.2, "unit": "%"}, {"measurement": "viability, T/C", "setting": "second compound 0.3 µM, first compound 0.000949 µM", "value": 72.8, "unit": "%"}, {"measurement": "viability, T/C", "setting": "second compound 0.3 µM, first compound 0.003 µM", "value": 51.8, "unit": "%"}, {"measurement": "viability, T/C", "setting": "second compound 0.3 µM, first compound 0.00949 µM", "value": 33.5, "unit": "%"}, {"measurement": "viability, T/C", "setting": "second compound 0.3 µM, first compound 0.03 µM", "value": 20.4, "unit": "%"}, {"measurement": "viability, T/C", "setting": "second compound 0.949 µM, first compound 94.9 pM", "value": 94.2, "unit": "%"}, {"measurement": "viability, T/C", "setting": "second compound 0.949 µM, first compound 0.0003 µM", "value": 92.3, "unit": "%"}, {"measurement": "viability, T/C", "setting": "second compound 0.949 µM, first compound 0.000949 µM", "value": 61.8, "unit": "%"}, {"measurement": "viability, T/C", "setting": "second compound 0.949 µM, first compound 0.003 µM", "value": 34.3, "unit": "%"}, {"measurement": "viability, T/C", "setting": "second compound 0.949 µM, first compound 0.00949 µM", "value": 19.2, "unit": "%"}, {"measurement": "viability, T/C", "setting": "second compound 0.949 µM, first compound 0.03 µM", "value": 12.7, "unit": "%"}, {"measurement": "viability, T/C", "setting": "second compound 3 µM, first compound 94.9 pM", "value": 96.6, "unit": "%"}, {"measurement": "viability, T/C", "setting": "second compound 3 µM, first compound 0.0003 µM", "value": 88.2, "unit": "%"}, {"measurement": "viability, T/C", "setting": "second compound 3 µM, first compound 0.000949 µM", "value": 58.3, "unit": "%"}, {"measurement": "viability, T/C", "setting": "second compound 3 µM, first compound 0.003 µM", "value": 22, "unit": "%"}, {"measurement": "viability, T/C", "setting": "second compound 3 µM, first compound 0.00949 µM", "value": 12, "unit": "%"}, {"measurement": "viability, T/C", "setting": "second compound 3 µM, first compound 0.03 µM", "value": 8.82, "unit": "%"}, {"measurement": "viability, T/C", "setting": "second compound 9.49 µM, first compound 94.9 pM", "value": 89.8, "unit": "%"}, {"measurement": "viability, T/C", "setting": "second compound 9.49 µM, first compound 0.0003 µM", "value": 70.1, "unit": "%"}, {"measurement": "viability, T/C", "setting": "second compound 9.49 µM, first compound 0.000949 µM", "value": 36.3, "unit": "%"}, {"measurement": "viability, T/C", "setting": "second compound 9.49 µM, first compound 0.003 µM", "value": 15.8, "unit": "%"}, {"measurement": "viability, T/C", "setting": "second compound 9.49 µM, first compound 0.00949 µM", "value": 10.2, "unit": "%"}, {"measurement": "viability, T/C", "setting": "second compound 9.49 µM, first compound 0.03 µM", "value": 7.89, "unit": "%"}, {"measurement": "viability, T/C", "setting": "second compound 30 µM, first compound 94.9 pM", "value": 70.6, "unit": "%"}, {"measurement": "viability, T/C", "setting": "second compound 30 µM, first compound 0.0003 µM", "value": 50, "unit": "%"}, {"measurement": "viability, T/C", "setting": "second compound 30 µM, first compound 0.000949 µM", "value": 31.5, "unit": "%"}, {"measurement": "viability, T/C", "setting": "second compound 30 µM, first compound 0.003 µM", "value": 13.8, "unit": "%"}, {"measurement": "viability, T/C", "setting": "second compound 30 µM, first compound 0.00949 µM", "value": 10.2, "unit": "%"}, {"measurement": "viability, T/C", "setting": "second compound 30 µM, first compound 0.03 µM", "value": 7.05, "unit": "%"}]}
{"smiles": "CC(C)CC(NC(=O)CNC(=O)c1cc(Cl)ccc1Cl)B1OC(=O)CC(CC(=O)O)(C(=O)O)O1", "note": "(stereo not given) + CC(C)NCC(C(=O)N1CCN(c2ncnc3c2C(C)CC3O)CC1)c1ccc(Cl)cc1", "values": [{"measurement": "IC50", "setting": "second compound 0.3 µM", "value": 37.7, "unit": "nM"}, {"measurement": "IC50", "setting": "second compound 0.949 µM", "value": 31.3, "unit": "nM"}, {"measurement": "IC50", "setting": "second compound 3 µM", "value": 25.6, "unit": "nM"}, {"measurement": "IC50", "setting": "second compound 9.49 µM", "value": 24.8, "unit": "nM"}, {"measurement": "IC50", "setting": "second compound 30 µM", "value": 19.7, "unit": "nM"}, {"measurement": "viability, T/C", "setting": "second compound 0.3 µM, first compound 0.000316 µM", "value": 89.7, "unit": "%"}, {"measurement": "viability, T/C", "setting": "second compound 0.3 µM, first compound 0.001 µM", "value": 93.9, "unit": "%"}, {"measurement": "viability, T/C", "setting": "second compound 0.3 µM, first compound 0.00316 µM", "value": 98.7, "unit": "%"}, {"measurement": "viability, T/C", "setting": "second compound 0.3 µM, first compound 0.01 µM", "value": 106, "unit": "%"}, {"measurement": "viability, T/C", "setting": "second compound 0.3 µM, first compound 0.0316 µM", "value": 56.7, "unit": "%"}, {"measurement": "viability, T/C", "setting": "second compound 0.3 µM, first compound 0.1 µM", "value": 12.8, "unit": "%"}, {"measurement": "viability, T/C", "setting": "second compound 0.949 µM, first compound 0.000316 µM", "value": 98.4, "unit": "%"}, {"measurement": "viability, T/C", "setting": "second compound 0.949 µM, first compound 0.001 µM", "value": 99, "unit": "%"}, {"measurement": "viability, T/C", "setting": "second compound 0.949 µM, first compound 0.00316 µM", "value": 97.5, "unit": "%"}, {"measurement": "viability, T/C", "setting": "second compound 0.949 µM, first compound 0.01 µM", "value": 106, "unit": "%"}, {"measurement": "viability, T/C", "setting": "second compound 0.949 µM, first compound 0.0316 µM", "value": 49.6, "unit": "%"}, {"measurement": "viability, T/C", "setting": "second compound 0.949 µM, first compound 0.1 µM", "value": 12.5, "unit": "%"}, {"measurement": "viability, T/C", "setting": "second compound 3 µM, first compound 0.000316 µM", "value": 103, "unit": "%"}, {"measurement": "viability, T/C", "setting": "second compound 3 µM, first compound 0.001 µM", "value": 99.6, "unit": "%"}, {"measurement": "viability, T/C", "setting": "second compound 3 µM, first compound 0.00316 µM", "value": 99.2, "unit": "%"}, {"measurement": "viability, T/C", "setting": "second compound 3 µM, first compound 0.01 µM", "value": 92.6, "unit": "%"}, {"measurement": "viability, T/C", "setting": "second compound 3 µM, first compound 0.0316 µM", "value": 40.5, "unit": "%"}, {"measurement": "viability, T/C", "setting": "second compound 3 µM, first compound 0.1 µM", "value": 9.51, "unit": "%"}, {"measurement": "viability, T/C", "setting": "second compound 9.49 µM, first compound 0.000316 µM", "value": 94.7, "unit": "%"}, {"measurement": "viability, T/C", "setting": "second compound 9.49 µM, first compound 0.001 µM", "value": 87.3, "unit": "%"}, {"measurement": "viability, T/C", "setting": "second compound 9.49 µM, first compound 0.00316 µM", "value": 89.5, "unit": "%"}, {"measurement": "viability, T/C", "setting": "second compound 9.49 µM, first compound 0.01 µM", "value": 92.6, "unit": "%"}, {"measurement": "viability, T/C", "setting": "second compound 9.49 µM, first compound 0.0316 µM", "value": 39, "unit": "%"}, {"measurement": "viability, T/C", "setting": "second compound 9.49 µM, first compound 0.1 µM", "value": 9.49, "unit": "%"}, {"measurement": "viability, T/C", "setting": "second compound 30 µM, first compound 0.000316 µM", "value": 76.9, "unit": "%"}, {"measurement": "viability, T/C", "setting": "second compound 30 µM, first compound 0.001 µM", "value": 80.2, "unit": "%"}, {"measurement": "viability, T/C", "setting": "second compound 30 µM, first compound 0.00316 µM", "value": 81, "unit": "%"}, {"measurement": "viability, T/C", "setting": "second compound 30 µM, first compound 0.01 µM", "value": 76.7, "unit": "%"}, {"measurement": "viability, T/C", "setting": "second compound 30 µM, first compound 0.0316 µM", "value": 31.3, "unit": "%"}, {"measurement": "viability, T/C", "setting": "second compound 30 µM, first compound 0.1 µM", "value": 7.82, "unit": "%"}]}
